Laboratory results reported in the Kinase Knowledgebase extract (Sharma et al. 2016).

Each compound was assayed against PIK3CA (human) (UniProt P42336) (assay: Assessment of PIK3CA Kinase Activity).
Chain of PIK3CA (human) (P42336 whole entry, looked up): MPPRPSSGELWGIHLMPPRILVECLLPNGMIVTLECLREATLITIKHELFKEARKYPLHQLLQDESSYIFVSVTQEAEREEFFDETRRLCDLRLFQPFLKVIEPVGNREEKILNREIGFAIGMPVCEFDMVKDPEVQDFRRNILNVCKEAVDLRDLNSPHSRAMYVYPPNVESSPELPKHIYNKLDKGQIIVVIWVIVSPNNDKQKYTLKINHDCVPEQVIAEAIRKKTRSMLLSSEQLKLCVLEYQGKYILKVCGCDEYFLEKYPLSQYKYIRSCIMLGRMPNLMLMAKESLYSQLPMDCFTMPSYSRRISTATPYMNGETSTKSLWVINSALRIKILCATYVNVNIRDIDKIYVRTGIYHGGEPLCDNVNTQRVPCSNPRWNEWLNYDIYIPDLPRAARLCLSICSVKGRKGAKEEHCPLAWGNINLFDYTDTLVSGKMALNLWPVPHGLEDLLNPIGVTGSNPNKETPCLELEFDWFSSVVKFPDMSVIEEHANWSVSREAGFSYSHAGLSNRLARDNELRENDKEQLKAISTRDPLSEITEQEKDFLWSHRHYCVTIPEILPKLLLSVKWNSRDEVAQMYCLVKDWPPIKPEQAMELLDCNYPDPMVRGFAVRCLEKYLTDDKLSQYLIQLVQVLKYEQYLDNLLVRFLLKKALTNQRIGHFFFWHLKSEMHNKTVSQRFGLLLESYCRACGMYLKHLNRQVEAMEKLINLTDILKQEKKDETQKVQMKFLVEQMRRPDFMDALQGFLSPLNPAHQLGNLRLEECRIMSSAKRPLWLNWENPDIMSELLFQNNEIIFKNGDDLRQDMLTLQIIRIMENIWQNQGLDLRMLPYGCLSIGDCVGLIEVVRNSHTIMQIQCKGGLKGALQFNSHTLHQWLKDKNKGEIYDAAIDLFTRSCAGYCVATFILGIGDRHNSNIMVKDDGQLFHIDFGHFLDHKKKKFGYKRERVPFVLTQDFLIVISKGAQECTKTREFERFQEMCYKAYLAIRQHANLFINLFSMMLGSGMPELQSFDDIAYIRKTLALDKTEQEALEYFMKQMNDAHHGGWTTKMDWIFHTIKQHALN

| SMILES | IC50 [nM] |
| --- | --- |
| CN(C)C1CCN(Cc2cc3nc(-n4ccc5ccccc54)nc(N4CCOCC4)c3s2)CC1 | 562 |
| c1ccc2c(-c3nc(N4CCOCC4)c4nc(CN5CC(N6CCOCC6)C5)sc4n3)c[nH]c2c1 | 396 |
| COCc1cc2ccccc2n1-c1nc(N2CCOCC2)c2nc(CN3CCC(C(C)(C)O)CC3)n(C)c2n1 | 5390 |
| CN(C)C1CCN(Cc2cc3nc(-c4c[nH]c5ccc(F)cc45)nc(N4CCOCC4)c3s2)CC1 | 1330 |
| Cn1c(CN2CCC(C(C)(C)O)CC2)nc2c(N3CCOCC3)nc(-n3c(C#N)cc4ccccc43)nc21 | 5300 |
| CN(C)C1CCN(Cc2cc3nc(-c4c[nH]c5ccccc45)nc(N4CCOCC4)c3s2)CC1 | 495 |
| CN(C)[C@@H]1CCN(Cc2nc3c(N4CCOCC4)nc(-c4c[nH]c5ccccc45)nc3n2C)C[C@@H]1F | 720 |

The remaining lines, values ahead:

| IC50 [nM] | SMILES |
| --- | --- |
| 814 | CN(C)C1CCN(Cc2cc3nc(-n4ccc5cc(O)ccc54)nc(N4CCOCC4)c3s2)CC1 |
| 809 | CC(C)(C(N)=O)N1CCN(Cc2cc3nc(-c4c(C#N)[nH]c5ccccc45)nc(N4CCOCC4)c3s2)CC1 |
| 529 | CC(C)(OCCN1CCCC1)c1cc2nc(-c3c[nH]c4ccccc34)nc(N3CCOCC3)c2s1 |
| 5010 | Cn1c(CN2CCC(N3CCOCC3)CC2)nc2c(N3CCOCC3)nc(-c3c[nH]c4ccccc34)nc21 |
| 1380 | O=C1COC2(CCN(Cc3cc4nc(-c5c[nH]c6ccccc56)nc(N5CCOCC5)c4s3)CC2)CN1 |
| 1600 | Cc1cc2cc(F)ccc2n1-c1nc(N2CCOCC2)c2sc(CN3CCC(N(C)C)CC3)cc2n1 |
| 707 | CN(C)C1CCN(Cc2cc3nc(N4CCc5ccccc54)nc(N4CCOCC4)c3s2)CC1 |
